Measured values as given in ChEMBL document CHEMBL5244205, “Discovery of tricyclic dipyrrolopyridine derivatives as novel JAK inhibitors” (Bioorg Med Chem, 2017).

Assays:
[1] = target: Casein kinase I isoform delta (Homo sapiens, UniProt P48730); assay: Inhibition of CHKdelta (unknown origin)
[2] = Inhibition of SYK (unknown origin); parameters: species or system Homo sapiens
[3] = target: Tyrosine-protein kinase BTK (Homo sapiens, UniProt Q06187); assay: Inhibition of BTK (unknown origin)
[4] = target: T1, Tyrosine-protein kinase JAK3 (Homo sapiens, UniProt P52333)
T1 sequence (P52333 whole entry): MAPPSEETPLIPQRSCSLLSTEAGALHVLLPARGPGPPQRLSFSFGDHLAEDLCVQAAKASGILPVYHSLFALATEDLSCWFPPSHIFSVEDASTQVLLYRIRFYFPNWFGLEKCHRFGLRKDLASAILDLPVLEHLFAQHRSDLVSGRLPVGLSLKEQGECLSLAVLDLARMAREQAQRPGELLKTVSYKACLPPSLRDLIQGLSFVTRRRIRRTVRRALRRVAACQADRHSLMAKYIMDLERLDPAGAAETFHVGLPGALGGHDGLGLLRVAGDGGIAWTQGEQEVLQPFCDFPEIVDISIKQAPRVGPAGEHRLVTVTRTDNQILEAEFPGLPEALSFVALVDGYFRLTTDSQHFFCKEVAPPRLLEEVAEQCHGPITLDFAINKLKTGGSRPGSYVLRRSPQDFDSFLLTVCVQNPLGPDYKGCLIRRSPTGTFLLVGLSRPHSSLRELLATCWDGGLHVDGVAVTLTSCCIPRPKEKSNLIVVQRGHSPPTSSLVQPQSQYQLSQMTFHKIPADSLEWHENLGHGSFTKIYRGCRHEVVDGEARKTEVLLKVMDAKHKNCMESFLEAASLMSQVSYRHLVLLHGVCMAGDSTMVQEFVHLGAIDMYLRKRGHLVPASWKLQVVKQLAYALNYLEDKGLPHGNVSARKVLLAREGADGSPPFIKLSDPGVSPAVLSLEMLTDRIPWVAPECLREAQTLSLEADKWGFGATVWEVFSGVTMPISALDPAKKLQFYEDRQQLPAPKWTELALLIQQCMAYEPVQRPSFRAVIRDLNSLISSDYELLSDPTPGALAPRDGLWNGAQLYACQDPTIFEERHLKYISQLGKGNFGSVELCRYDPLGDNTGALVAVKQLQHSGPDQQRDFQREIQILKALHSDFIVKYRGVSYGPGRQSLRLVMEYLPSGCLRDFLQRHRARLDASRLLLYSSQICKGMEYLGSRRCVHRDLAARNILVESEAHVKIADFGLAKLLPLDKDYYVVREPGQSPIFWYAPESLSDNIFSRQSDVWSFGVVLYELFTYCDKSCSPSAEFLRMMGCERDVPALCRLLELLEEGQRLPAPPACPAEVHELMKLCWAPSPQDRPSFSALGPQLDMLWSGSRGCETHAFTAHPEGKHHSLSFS
Description: Inhibition of human JAK3 kinase domain using biotin-Lyn-substrate-2 as substrate incubated for 1 hr by ELISA

Chain of Casein kinase I isoform delta (P48730 whole entry, canonical isoform): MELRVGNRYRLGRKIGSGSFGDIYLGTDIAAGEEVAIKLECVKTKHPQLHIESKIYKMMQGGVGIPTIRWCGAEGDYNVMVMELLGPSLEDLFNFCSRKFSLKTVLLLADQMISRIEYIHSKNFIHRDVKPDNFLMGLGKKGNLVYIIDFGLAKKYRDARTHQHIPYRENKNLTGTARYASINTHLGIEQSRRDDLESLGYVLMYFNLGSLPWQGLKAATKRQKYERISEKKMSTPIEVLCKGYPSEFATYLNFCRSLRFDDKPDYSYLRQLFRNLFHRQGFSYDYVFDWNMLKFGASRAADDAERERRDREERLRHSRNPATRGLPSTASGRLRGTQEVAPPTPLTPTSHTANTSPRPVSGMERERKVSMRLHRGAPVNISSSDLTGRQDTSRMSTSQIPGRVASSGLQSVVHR
Chain of Tyrosine-protein kinase BTK (Q06187 whole entry): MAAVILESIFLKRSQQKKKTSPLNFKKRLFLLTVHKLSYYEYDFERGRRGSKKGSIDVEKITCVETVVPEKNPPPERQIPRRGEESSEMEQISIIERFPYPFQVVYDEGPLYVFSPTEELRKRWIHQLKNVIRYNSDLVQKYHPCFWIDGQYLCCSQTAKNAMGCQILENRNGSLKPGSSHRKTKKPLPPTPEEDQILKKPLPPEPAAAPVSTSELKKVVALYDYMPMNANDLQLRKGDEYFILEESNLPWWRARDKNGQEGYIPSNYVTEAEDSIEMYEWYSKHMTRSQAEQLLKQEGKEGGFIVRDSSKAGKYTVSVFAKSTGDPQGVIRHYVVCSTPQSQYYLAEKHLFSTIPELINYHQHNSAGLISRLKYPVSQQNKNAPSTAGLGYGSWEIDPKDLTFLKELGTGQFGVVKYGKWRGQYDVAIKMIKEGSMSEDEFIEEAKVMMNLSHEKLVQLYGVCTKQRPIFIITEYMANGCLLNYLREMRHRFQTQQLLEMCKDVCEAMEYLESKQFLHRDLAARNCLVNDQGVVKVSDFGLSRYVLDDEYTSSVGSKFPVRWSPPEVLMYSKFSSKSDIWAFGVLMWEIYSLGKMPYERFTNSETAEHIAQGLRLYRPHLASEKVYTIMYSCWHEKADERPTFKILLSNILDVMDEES

C[C@@H]1CCN(C(=O)CC#N)C[C@@H]1n1ccc2cnc3[nH]ccc3c21
IC50 [1]: > 1000 nM
IC50 [2]: > 1000 nM
IC50 [3]: > 1000 nM
IC50 [4]: 0.14 nM
